Data taken from patent publication US9403829B2, “Pharmaceutical compositions of 7-(6-(2-hydroxypropan-2-yl)pyridin-3-yl)-1-((trans)-4-methoxycyclohexyl)-3,4-dihydropyrazino [2,3-b]pyrazin-2(1H)-one, a solid form thereof and methods of their use” (Signal Pharmaceuticals, LLC, priority 2011, dated 2016).
Read-outs that look alike come from different tables or passages of the source.

What was measured:
[1] = Phase 1 crossover pharmacokinetic study of tablet and capsule formulations, single oral dose; type: in vivo, human; details: male, human, plasma, oral; for AUC(0-t): read-out: AUC0-24
Description: Certain formulations provided herein were evaluated in a Phase 1, open-label, randomized, crossover study.
On Day 1 of Period 1, following an overnight fast of at least 8 hours, subjects were randomized to one of the following 3 sequences to receive Treatment A, B or C (Table 30).
In Treatment A, one 20-mg reference Compound A API-in-capsule was administered orally after at least 8 hour fast with 240 mL of non-carbonated, room temperature water. In Treatment B, one 20-mg tablet of Compound A (Tablet Formulation XIII) was administered under fasted conditions. In Treatment C, four 5-mg tablets of Compound A (Tablet Formulation XIV) were administered under fasted conditions. The 20-mg tablet and four 5-mg tablets were administered orally after at least 8 hour fast with 240 mL of non-carbonated, room temperature water.
For each period, serial blood samples were collected before dosing (zero hour) and at 0.5, 1, 1.5, 2, 2.5, 3, 4, 6, 8, 12, 24, 48, 72, and 96 hours after dosing. Plasma concentrations of Compound A were determined for determining PK parameters, such as […], AUC0-∞, Cmax, Tmax, t1/2, CL/F, and Vz/F for Compound A. Plasma PK parameters were calculated using non compartmental methods. Analyses of variance (ANOVA) were performed on the natural log-transformed AUC0-t, AUC0-∞, and Cmax for Compound A. The geometric mean ratios (test/reference) and their 90% confidence intervals were also calculated. For Tmax, non parametric analysis was used to produce median differences.

[2] = Phase 1 food effect study (Part 2), single 20-mg oral dose of Compound A tablet, fed vs fasted; type: in vivo, human; details: for CL/F / AUC(0-inf) / Cmax / half-life / AUC(0-t) / Vd/F: geometric mean; for Tmax / AUC(0-inf) / Cmax / half-life / AUC(0-t) / Vd/F: male, human, plasma, 20 mg; for AUC(0-t): read-out: AUC0-24; for Vd/F: read-out: Vz/F
Description: The primary objectives of this study are: to characterize the biotransformation and excretion of Compound A following a single 20 mg oral dose of Compound A capsule containing a microtracer of [^14C]-Compound A solution in healthy male subjects (Part 1) and to evaluate the effect of a high-fat meal on the pharmacokinetics (PK) of Compound A following a single oral 20-mg dose of Compound A tablet (Part 2).
Part 2 design: Part 2 will be a 2-period crossover study; in Period 1, subjects (n=12) will be randomized to receive either an oral 20 mg dose of Compound A tablet (Treatment B) under fed (n=6) or fasted (n=6) conditions. In Period 2, subjects will receive Treatment B under converse conditions based on treatment assignment in Period 1. After screening, subjects (n=12) eligible for participation in the study will return to the study center on Day −1 for baseline assessments. Subjects who continue to be qualified for participation in the study will be randomized and enrolled in the study on the morning of Day 1. Subjects (n=6) will be enrolled and randomized to receive Treatment B under fed or fasted conditions on the morning of Day 1 after fasting for at least 8 hours. Fed subjects will be served a standard high fat meal breakfast, or its equivalent, that must be consumed within 30 minutes from serving. Dosing must occur 30 minutes (+5 minutes) after serving a subject breakfast. All subjects (fed and fasted) will fast (not to consume any food) until 4 hours post dose. Water will be allowed during the fasting period. Subjects will be domiciled at the study center from Day −1 until the morning of Day 5 of each period. Subjects will be discharged from the study center on the morning of Day 5 upon satisfactory safety review and completion of study-related procedures. Safety and tolerability data will be monitored and collected following each dosing period. Periods 1 and 2 will be separated by a washout period of at least 7 days (no more than 10 days) from prior dose to the next dose. In certain instances, a longer washout may be acceptable if previously agreed to.
Serial blood samples (10 mL) will be collected at predose (0 hour) and at 0.5, 1, 2, 3, 6, 12, 24, 48, 72 and 96 hours post dose for the determination of plasma concentrations of Compound A and the O-desmethyl metabolite of Compound A. Safety will be monitored throughout the study; safety evaluations will include AE reporting, physical examinations, vital sign measurements, ECG, and clinical laboratory safety tests. Concomitant medications will be assessed and recorded throughout the study as well. In addition, during the subjects' stay-in-the clinic (i.e., confinement period), fasting plasma glucose levels will be monitored as part of the clinical laboratory safety tests. For Parts 1 and 2, all subjects will return to the clinic within 7 to days after the last dose for follow up safety assessments. In the event that a subject discontinues prematurely from the study, every reasonable effort should be made (and documented) to ensure that all procedures and evaluations scheduled for the follow-up visit are performed at the time of discontinuation or a follow-up visit should be scheduled within 7 to days from the discontinuation day.
Part 2 dosing: In Part 2, subjects will fast overnight for at least 8 hours prior to Compound A administration. On the morning of Day 1, each subject will receive a 20-mg tablet of Compound A orally. Subjects randomized to receive Compound A under fed conditions will be a served a standard high fat meal (breakfast).
The standard high fat meal or its equivalent must be consumed within minutes of serving. Dosing must occur 30 minutes (+5 minutes) after serving the meal. The tablet will be administered with approximately 240 mL of non-carbonated, room temperature water. After dosing, subjects will continue to fast until 4 hours after dosing.

[3] = upon administration of about 20 mg of Compound A (protocol of Section 6.5.1)
[4] = Treatment A: one 20-mg Compound A API-in-capsule, fasted, n = 18, geometric mean
[5] = fed vs fasted, healthy adult males, 20 mg Compound A
[6] = po, Fasted (n = 11), single 20-mg oral dose of Compound A tablet
[7] = po, Fed (n = 11, high fat meal), single 20-mg oral dose of Compound A tablet

Cmax [1, 3]: 503 ng/mL
Tmax [1, 3]: 3 h
half-life [1, 3]: 858 min
AUC(0-t) [1, 3]: 7480 ng·h/mL
AUC(0-inf) ([1]; upon administration of about 20 mg of Compound A (protocol of Section 6.5.1), read-out: AUC∞): 11900 ng·h/mL
half-life [1, 4]: 858 min
Tmax ([1]; Treatment A: one 20-mg Compound A API-in-capsule, fasted, healthy adult males, n = 18, median): 3 h
Cmax [1, 4]: 503 ng/mL
AUC(0-t) [1, 4]: 7480 ng·h/mL
AUC(0-inf) ([1]; Treatment A: one 20-mg Compound A API-in-capsule, fasted, n = 18, geometric mean, read-out: AUC0-∞): 11900 ng·h/mL
CL/F ([2]; Fasted (n = 11), single 20-mg oral dose of Compound A tablet): 2.0 L/h
CL/F ([2]; Fed (n = 11, high fat meal), single 20-mg oral dose of Compound A tablet): 2.0 L/h
decrease in Cmax with a high fat meal [2, 5]: ~17%
increase in overall exposure (AUCinf) with a high fat meal [2, 5]: ~3%
Tmax ([2]; oral, fed vs fasted, healthy adult males, 20 mg Compound A, read-out: delay in Tmax with a high fat meal): 3 h
Tmax ([2]; po, Fasted (n = 11), single 20-mg oral dose of Compound A tablet, healthy adult males, median, read-out: Tmax): 3 h
AUC(0-inf) [2, 6]: 9830 ng·h/mL
Cmax [2, 6]: 425 ng/mL
half-life [2, 6]: 888 min
AUC(0-t) [2, 6]: 6400 ng·h/mL
Vd/F [2, 6]: 34.7 L
AUC(0-inf) [2, 7]: 10100 ng·h/mL
Cmax [2, 7]: 364 ng/mL
half-life [2, 7]: 894 min
AUC(0-t) [2, 7]: 6270 ng·h/mL
Vd/F [2, 7]: 42.6 L
Tmax ([2]; po, Fed (n = 11, high fat meal), single 20-mg oral dose of Compound A tablet, median, read-out: Tmax): 6 h
Compound: CC(C)(O)c1ccc(-c2cnc3c(n2)N([C@H]2CC[C@H](O)CC2)C(=O)CN3)cn1 [O-Desmethyl metabolite, 1-((1r,4r)-4-hydroxycyclohexyl)-7-(6-(2-hydroxypropan-2-yl)pyridin-3-yl)-3,4-dihydropyrazino[2,3-b]pyrazin-2(1H)-one]
